According to patent publication US20160375006A1, “USES OF PARALOG-SELECTIVE INHIBITORS OF GSK3 KINASES” (priority 2012, published 2016):

Experiments:
[1] = tested on: audiogenic seizure phenotype; conditions: Fmr1 KO mice, single dose 30 mg/kg i.p.
TBK1 = TBK1 (Homo sapiens, UniProt Q9UHD2)
Procedure: (§1) This was completed utilizing one of two assays depending on the kinase being examined.
(§2) A solution of IMAP binding reagent (IMAP Screening Express kit; Molecular Devices) (60 μL) was added to each well and incubated for 30 minutes.
(§3) A solution of termination buffer (QuickScout Screening assist MSA; Carna Biosciences) (60 μL) was added to each well. The entire reaction mixture was then applied to a LabChip3000 system (Caliper Life Science) and the product and substrate peptide peaks were separated and quantified.

ITK = ITK (Homo sapiens, UniProt Q08881)
Procedure: as §1, §2, §3
(§4) The assay utilized was identical to that of the single point inhibitory activity determination (MSA) but run in dose response. […] A solution of termination buffer (QuickScout Screening assist MSA; Carna Biosciences) (60 μL) was added to each well. The entire reaction mixture was then applied to a LabChip3000 system (Caliper Life Science) and the product and substrate peptide peaks were separated and quantified.

PASK = PASK (Homo sapiens, UniProt Q96RG2)
Procedure: as §1, §2, §3, §4

p38α = p38α (Homo sapiens, UniProt Q16539)
Procedure: as §1, §2, §3, §4

PKCβ1 = PKCβ1 (Homo sapiens, UniProt P05771)
Procedure: as §1, §2, §3

KIT(T670I) = KIT(T670I) (Homo sapiens, UniProt P10721, T670I)
KIT(T670I), sequence (P10721 26-976 T670I): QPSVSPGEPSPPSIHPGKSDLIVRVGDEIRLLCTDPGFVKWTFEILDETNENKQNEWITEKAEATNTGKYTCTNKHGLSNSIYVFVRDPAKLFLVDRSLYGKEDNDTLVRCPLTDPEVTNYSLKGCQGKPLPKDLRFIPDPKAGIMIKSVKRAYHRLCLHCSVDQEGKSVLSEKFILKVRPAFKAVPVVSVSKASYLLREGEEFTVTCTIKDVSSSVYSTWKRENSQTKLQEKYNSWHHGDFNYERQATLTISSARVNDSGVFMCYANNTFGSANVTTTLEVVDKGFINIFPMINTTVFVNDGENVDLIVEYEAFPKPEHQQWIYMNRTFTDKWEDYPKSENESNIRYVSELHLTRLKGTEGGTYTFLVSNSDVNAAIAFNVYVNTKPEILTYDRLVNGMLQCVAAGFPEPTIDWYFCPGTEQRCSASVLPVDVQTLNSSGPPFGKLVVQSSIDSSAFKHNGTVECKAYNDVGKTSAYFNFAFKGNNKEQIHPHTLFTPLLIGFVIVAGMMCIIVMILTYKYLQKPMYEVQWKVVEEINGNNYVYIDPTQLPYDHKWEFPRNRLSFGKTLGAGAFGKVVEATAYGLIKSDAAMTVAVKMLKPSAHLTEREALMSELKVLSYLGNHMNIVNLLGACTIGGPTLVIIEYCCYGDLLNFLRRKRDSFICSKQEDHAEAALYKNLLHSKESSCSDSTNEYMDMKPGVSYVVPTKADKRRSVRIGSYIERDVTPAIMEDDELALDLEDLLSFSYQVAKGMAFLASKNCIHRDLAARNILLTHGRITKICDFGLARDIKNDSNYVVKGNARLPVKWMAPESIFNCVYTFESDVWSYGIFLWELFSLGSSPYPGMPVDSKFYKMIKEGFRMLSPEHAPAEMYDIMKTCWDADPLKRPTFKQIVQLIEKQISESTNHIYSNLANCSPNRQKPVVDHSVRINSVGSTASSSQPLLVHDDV
Procedure: as §1, §2, §3, §4

[2] = tested on: pGSK3α/β, β-catenin, CRMP2 in SH-SY5Y cells; conditions: SH-SY5Y cells, 1, 5, 10 and 30 μM, 24 hours
Procedure: The samples were incubated and gently rocked for 1 h before centrifuged at 12 000 g for 10 min. The supernatant total cell lysate was subject to subsequent western blot analysis. […] Membranes were incubated overnight with primary antibodies in a solution of Tris-buffered saline containing Tween 20 (TBST, Sigma) and 5% dry milk. Incubation of secondary antibodies was performed for 1 h at room temperature in a solution of 5% dry milk in TBST.

AurA/TPX2 = AurA/TPX2 (Homo sapiens, UniProt O14965)
Procedure: as §1, §2, §3, §4

ROCK1 = ROCK1 (Homo sapiens, UniProt Q13464)
Procedure: as §1, §2, §3, §4

MRCKα = MRCKα (Homo sapiens, UniProt Q5VT25)
Procedure: as §1, §2, §3, §4

[3] = tested on: protein synthesis in hippocampal slices; conditions: Fmr1 knockout mice hippocampal slices, 10 μM
Procedure: 500 um hippocampal slices are recovered in ACSF for 3 hours, followed by incubation in GSK3ai or vehicle for an hour, with Actinomycin D (to block transcription) for the last half hour of drug incubation. Slices are then transferred to new chambers containing ACSF with drug/vehicle and S35 (a radiolabeled Met/Cys) for 30 minutes to measure protein synthesis. Slices are then processed and read in a scintillation counter to determine the rate of protein synthesis.

PLK3 = PLK3 (Homo sapiens, UniProt Q9H4B4)
Procedure: as §1, §2, §3

EPHA1 = EPHA1 (Homo sapiens, UniProt P21709)
EPHA1, sequence (P21709 26-976): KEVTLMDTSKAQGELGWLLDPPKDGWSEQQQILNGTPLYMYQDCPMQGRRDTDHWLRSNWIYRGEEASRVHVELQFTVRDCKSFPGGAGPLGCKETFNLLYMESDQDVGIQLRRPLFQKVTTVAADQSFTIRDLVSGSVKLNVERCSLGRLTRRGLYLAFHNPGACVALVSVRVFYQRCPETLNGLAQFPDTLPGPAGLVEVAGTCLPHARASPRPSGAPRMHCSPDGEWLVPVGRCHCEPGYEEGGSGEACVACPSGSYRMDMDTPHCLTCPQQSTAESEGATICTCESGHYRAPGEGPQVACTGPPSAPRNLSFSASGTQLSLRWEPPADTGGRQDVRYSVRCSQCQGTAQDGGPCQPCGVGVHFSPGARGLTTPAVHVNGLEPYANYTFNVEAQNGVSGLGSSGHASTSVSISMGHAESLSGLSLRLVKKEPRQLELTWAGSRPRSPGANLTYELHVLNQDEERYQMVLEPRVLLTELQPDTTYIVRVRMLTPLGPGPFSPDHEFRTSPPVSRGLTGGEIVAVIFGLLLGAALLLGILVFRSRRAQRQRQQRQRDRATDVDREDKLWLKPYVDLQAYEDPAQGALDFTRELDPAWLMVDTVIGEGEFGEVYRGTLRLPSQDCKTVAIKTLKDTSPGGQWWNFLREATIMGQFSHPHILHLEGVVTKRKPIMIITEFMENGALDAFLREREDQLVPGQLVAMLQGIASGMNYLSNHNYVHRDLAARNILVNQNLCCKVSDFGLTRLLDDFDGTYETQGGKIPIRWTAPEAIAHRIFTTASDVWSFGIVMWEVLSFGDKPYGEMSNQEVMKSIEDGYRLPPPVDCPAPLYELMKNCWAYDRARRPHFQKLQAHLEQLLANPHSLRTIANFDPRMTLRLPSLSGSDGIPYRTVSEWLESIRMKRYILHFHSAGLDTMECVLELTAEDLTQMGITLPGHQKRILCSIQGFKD
Procedure: as §2, §3, §4

MAP2K7_Cascade = MAP2K7_Cascade (Homo sapiens, UniProt O14733)
Procedure: as §1, §2, §3, §4

CLK1 = CLK1 (Homo sapiens, UniProt P49759); assay: Carna kinase panel; type: biochemical
CLK1, sequence (P49759 whole entry): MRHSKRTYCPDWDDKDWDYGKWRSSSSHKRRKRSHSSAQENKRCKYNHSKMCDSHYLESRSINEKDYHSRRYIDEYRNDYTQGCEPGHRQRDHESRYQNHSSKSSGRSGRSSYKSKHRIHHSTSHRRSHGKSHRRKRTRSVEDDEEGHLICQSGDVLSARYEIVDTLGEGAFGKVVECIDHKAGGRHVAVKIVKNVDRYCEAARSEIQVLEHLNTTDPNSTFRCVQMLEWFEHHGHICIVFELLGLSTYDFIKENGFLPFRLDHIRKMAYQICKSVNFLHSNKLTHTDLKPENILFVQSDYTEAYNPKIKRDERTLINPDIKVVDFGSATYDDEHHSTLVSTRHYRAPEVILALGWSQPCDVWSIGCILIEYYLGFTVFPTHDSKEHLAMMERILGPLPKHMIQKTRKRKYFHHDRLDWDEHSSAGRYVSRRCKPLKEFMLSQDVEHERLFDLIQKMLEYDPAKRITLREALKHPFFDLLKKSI
Procedure: as §1, §2, §3

HIPK1 = HIPK1 (Homo sapiens, UniProt Q86Z02)
HIPK1, sequence (Q86Z02 whole entry): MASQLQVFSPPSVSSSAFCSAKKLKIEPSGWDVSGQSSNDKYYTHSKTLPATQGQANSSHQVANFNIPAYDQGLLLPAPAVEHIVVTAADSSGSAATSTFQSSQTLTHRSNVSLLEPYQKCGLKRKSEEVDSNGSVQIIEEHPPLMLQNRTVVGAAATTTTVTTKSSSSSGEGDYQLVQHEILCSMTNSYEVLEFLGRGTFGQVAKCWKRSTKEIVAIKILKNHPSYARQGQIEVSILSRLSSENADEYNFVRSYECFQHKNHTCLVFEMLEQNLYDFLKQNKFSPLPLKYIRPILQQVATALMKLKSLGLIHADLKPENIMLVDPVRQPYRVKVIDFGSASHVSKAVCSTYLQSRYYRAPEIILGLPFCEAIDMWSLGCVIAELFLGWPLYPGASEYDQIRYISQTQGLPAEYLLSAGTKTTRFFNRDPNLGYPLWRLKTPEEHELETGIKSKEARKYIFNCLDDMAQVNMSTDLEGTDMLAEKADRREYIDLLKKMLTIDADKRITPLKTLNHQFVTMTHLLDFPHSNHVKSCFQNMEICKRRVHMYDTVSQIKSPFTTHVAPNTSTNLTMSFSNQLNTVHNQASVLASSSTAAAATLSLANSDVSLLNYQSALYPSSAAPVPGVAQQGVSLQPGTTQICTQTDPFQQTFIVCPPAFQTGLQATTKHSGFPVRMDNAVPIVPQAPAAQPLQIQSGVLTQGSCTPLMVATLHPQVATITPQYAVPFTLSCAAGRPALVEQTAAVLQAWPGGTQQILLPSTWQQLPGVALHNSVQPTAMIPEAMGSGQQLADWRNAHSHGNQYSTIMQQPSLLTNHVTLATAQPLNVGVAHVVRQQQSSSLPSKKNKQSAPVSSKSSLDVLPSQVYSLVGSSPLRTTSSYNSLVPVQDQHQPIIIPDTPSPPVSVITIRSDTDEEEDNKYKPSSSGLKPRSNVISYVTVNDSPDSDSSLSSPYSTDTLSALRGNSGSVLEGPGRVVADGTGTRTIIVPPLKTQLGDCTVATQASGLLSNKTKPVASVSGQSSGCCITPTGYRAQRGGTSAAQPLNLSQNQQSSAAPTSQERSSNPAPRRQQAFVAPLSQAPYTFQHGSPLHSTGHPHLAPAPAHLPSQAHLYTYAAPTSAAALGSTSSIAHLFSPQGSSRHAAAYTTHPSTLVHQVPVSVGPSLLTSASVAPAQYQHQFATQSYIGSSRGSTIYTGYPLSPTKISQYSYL
Procedure: as §1, §2, §3

IRAK1 = IRAK1 (Homo sapiens, UniProt P51617)
Procedure: as §1, §2, §3, §4

MAPKAPK2 = MAPKAPK2 (Homo sapiens, UniProt P49137)
Procedure: as §1, §2, §3, §4

SRC = SRC (Homo sapiens, UniProt P12931)
Procedure: as §1, §2, §3, §4

CK1γ3 = CK1γ3 (Homo sapiens, UniProt Q9Y6M4)
Procedure: as §1, §2, §3, §4

LATS2 = LATS2 (Homo sapiens, UniProt Q9NRM7)
Procedure: as §1, §2, §3, §4

CaMK2α = CaMK2α (Homo sapiens, UniProt Q9UQM7)
Procedure: as §1, §2, §3, §4

CDC7/ASK = CDC7/ASK (Homo sapiens, UniProt O00311)
Procedure: as §1, §2, §3, §4

FGFR4(N535K) = FGFR4(N535K) (Homo sapiens, UniProt P22455, N535K)
Procedure: as §1, §2, §3

DYRK1A = DYRK1A (Homo sapiens, UniProt Q13627)
Procedure: as §1, §2, §3, §4

KIT(D816E) = KIT(D816E) (Homo sapiens, UniProt P10721, D816E)
MET(D1228H) = MET(D1228H) (Homo sapiens, UniProt P08581, D1228H)
TTK = TTK (Homo sapiens, UniProt P33981)
WEE1 = WEE1 (Homo sapiens, UniProt P30291)
GSK3α = GSK3α (Homo sapiens, UniProt P49840)
GSK3α, sequence (P49840 whole entry): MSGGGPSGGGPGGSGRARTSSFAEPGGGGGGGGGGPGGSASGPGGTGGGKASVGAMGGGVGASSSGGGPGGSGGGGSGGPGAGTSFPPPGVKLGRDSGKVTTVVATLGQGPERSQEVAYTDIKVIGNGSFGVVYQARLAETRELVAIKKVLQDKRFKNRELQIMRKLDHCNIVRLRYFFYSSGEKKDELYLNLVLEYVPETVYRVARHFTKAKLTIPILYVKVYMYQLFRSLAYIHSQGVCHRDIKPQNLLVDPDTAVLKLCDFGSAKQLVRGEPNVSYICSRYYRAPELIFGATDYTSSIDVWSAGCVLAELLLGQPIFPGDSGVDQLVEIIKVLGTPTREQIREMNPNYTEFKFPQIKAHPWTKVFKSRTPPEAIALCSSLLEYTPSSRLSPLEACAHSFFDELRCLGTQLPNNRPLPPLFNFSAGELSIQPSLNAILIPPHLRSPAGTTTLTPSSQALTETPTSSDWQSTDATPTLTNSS
Procedure: as §1, §2, §3, §4

LIMK1 = molecular target: T1, LIMK1 (Homo sapiens, UniProt P53667); assay: Carna kinase panel; type: biochemical
T1 construct: purchased Carna Biosciences
Procedure: as §1, §2, §3

LKB1 = LKB1 (Homo sapiens, UniProt Q15831)
BMPR1A = BMPR1A (Homo sapiens, UniProt P36894)
PLK4 = PLK4 (Homo sapiens, UniProt O00444)
MET(M1250T) = MET(M1250T) (Homo sapiens, UniProt P08581, M1250T)

ITK, sequence (Q08881 whole entry): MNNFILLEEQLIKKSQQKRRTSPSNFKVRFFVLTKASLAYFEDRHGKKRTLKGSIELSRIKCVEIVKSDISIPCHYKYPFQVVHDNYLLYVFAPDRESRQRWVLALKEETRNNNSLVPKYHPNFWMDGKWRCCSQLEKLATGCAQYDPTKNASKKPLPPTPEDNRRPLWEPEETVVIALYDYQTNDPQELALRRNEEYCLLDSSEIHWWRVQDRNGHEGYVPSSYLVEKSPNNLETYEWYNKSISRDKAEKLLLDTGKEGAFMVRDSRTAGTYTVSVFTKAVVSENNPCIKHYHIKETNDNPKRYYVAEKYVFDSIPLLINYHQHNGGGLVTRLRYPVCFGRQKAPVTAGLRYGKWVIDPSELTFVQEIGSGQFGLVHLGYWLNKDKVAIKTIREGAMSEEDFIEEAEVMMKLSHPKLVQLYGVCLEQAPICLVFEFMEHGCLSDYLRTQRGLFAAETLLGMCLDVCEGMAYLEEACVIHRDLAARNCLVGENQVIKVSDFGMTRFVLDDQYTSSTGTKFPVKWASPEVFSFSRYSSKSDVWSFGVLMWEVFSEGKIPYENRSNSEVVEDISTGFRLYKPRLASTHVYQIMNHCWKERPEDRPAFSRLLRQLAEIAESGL
p38α, sequence (Q16539 whole entry): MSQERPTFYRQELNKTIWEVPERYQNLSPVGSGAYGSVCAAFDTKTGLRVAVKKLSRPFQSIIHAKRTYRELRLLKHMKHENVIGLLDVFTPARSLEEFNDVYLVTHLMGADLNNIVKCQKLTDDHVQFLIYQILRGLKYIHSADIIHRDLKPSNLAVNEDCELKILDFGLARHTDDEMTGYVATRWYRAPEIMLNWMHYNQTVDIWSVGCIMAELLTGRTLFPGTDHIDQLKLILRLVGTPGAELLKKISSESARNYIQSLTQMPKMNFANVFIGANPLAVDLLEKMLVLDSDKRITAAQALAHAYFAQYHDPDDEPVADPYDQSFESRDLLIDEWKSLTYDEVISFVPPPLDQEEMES

With CC[C@@]1(c2ccccc2)C2=C(CC(C)(C)CC2=O)Nc2n[nH]cc21 [BRD0705] the Audiogenic seizure phenotype [1] was “reduces audiogenic seizures”, the “% Inhibition at 10 μM” value (TBK1) was 1.7% and the “% Inhibition at 10 μM” value (ITK) was 0.3%. For the same compound, the “% Inhibition at 10 μM” value (PASK) was 0.2%, the “% Inhibition at 10 μM” value (p38α) was −8.5% and the “% Inhibition at 10 μM” value (PKCβ1) was −6.5%. For the same compound, the “% Inhibition at 10 μM” value (KIT(T670I)) was −0.8%, the “pGSK3αY279 level (Western blot)” value [2] was “dose dependent decrease” and the “pGSK3βY216 and β-catenin levels (Western blot)” value [2] was “without effecting”. The “% Inhibition at 10 μM” value (AurA/TPX2) was −5.3%, the “% Inhibition at 10 μM” value (ROCK1) was −2.0% and the “% Inhibition at 10 μM” value (MRCKα) was −3.8%. The Excess protein synthesis [3] was “correction of excess protein synthesis”, the “% Inhibition at 10 μM” value (PLK3) was −12.5% and the “% Inhibition at 10 μM” value (EPHA1) was −2.3%. For the same compound, the “% Inhibition at 10 μM” value (MAP2K7_Cascade) was −0.6%, the “% Inhibition at 10 μM” value (CLK1) was −7.1% and the “% Inhibition at 10 μM” value (HIPK1) was −6.5%. For the same compound, the “% Inhibition at 10 μM” value (IRAK1) was 3.1%, the “% Inhibition at 10 μM” value (MAPKAPK2) was −22.4% and the “% Inhibition at 10 μM” value (SRC) was 3.2%. The “% Inhibition at 10 μM” value (CK1γ3) was −2.1%, the “% Inhibition at 10 μM” value (LATS2) was −11.9% and the “% Inhibition at 10 μM” value (CaMK2α) was −8.6%. The “% Inhibition at 10 μM” value (CDC7/ASK) was −7.2%, the “% Inhibition at 10 μM” value (FGFR4(N535K)) was 22.1% and the “% Inhibition at 10 μM” value (DYRK1A) was −3.1%.

CC(C)(C)Cc1[nH]nc2c1[C@](C)(c1ccccc1)C1=C(CC(C)(C)CC1=O)N2 [BRD3731] was tested, and the “% Inhibition 10 μM” value (KIT(D816E)) was 3.9%, the “% Inhibition 10 μM” value (TBK1; 10 μM) was −0.5% and the “% Inhibition 10 μM” value (MET(D1228H)) was 0.0%. The “% Inhibition 10 μM” value (ITK; 10 μM) was 2.8%, the “% Inhibition 10 μM” value (TTK) was 5.4% and the “% Inhibition 10 μM” value (PASK; 10 μM) was 10.7%. For the same compound, the “% Inhibition 10 μM” value (p38α; 10 μM) was 0.9%, the “% Inhibition 10 μM” value (PKCβ1; 10 μM) was 4.1% and the “% Inhibition 10 μM” value (KIT(T670I); 10 μM) was −0.3%. For the same compound, the “% Inhibition 10 μM” value (AurA/TPX2; 10 μM) was 3.8%, the “% Inhibition 10 μM” value (WEE1) was −9.1% and the “% Inhibition 10 μM” value (ROCK1; 10 μM) was 0.8%. The “% Inhibition 10 μM” value (MRCKα; 10 μM) was 4.3%, the “% Inhibition 10 μM” value (PLK3; 10 μM) was 4.0% and the “% Inhibition 10 μM” value (EPHA1; 10 μM) was 2.1%. For the same compound, the “% Inhibition 10 μM” value (MAP2K7_Cascade; 10 μM) was 3.0%, the “% Inhibition 10 μM” value (GSK3α) was 96.8% and the “Fold Selectivity” value (GSK3α) was 7.8 fold. For the same compound, the IC50 (GSK3α) was 211 nM, the “% Inhibition 10 μM” value (CLK1; 10 μM) was 3.1% and the “% Inhibition 10 μM” value (HIPK1; 10 μM) was 5.8%. For the same compound, the “% Inhibition 10 μM” value (IRAK1; 10 μM) was 1.2%, the “% Inhibition 10 μM” value (MAPKAPK2; 10 μM) was 22.4% and the “% Inhibition 10 μM” value (SRC; 10 μM) was 1.0%. The “% Inhibition 10 μM” value (CK1γ3; 10 μM) was −2.1%, the “% Inhibition 10 μM” value (LATS2; 10 μM) was −3.0% and the “% Inhibition 10 μM” value (CaMK2α; 10 μM) was −4.3%. The “% Inhibition 10 μM” value (LIMK1) was 7.5%, the “% Inhibition 10 μM” value (LKB1) was 3.4% and the “% Inhibition 10 μM” value (BMPR1A) was −4.4%. The “% Inhibition 10 μM” value (PLK4) was 14.3%, the “% Inhibition 10 μM” value (MET(M1250T)) was 0.8% and the “% Inhibition 10 μM” value (CDC7/ASK; 10 μM) was −3.1%. For the same compound, the “% Inhibition 10 μM” value (DYRK1A; 10 μM) was 3.3%.
